According to the NIST ThermoML archive (doi:10.1021/je060271a):
“And” between values parts separate entries of the source, which are not always exact repeats. Equal entries are not always repeated.

Conditions: Liquid, Vibrating tube method

CCCCCCC(=O)OCC(COC(=O)CCCCCC)(COC(=O)CCCCCC)COC(=O)CCCCCC [pentaerythritol tetraheptanoate]
Conditions | mass density
303.15 K, 31425 kPa | 989 kg/m3
303.15 K, 31458 kPa | 989.1 kg/m3
303.15 K, 31487 kPa | 989.1 kg/m3
303.15 K, 31515 kPa | 989 kg/m3
303.15 K, 31543 kPa | 989.1 kg/m3
303.15 K, 31577 kPa | 989.1 kg/m3
303.15 K, 31605 kPa | 989 kg/m3
303.15 K, 31639 kPa | 989.1 kg/m3
303.15 K, 31667 kPa | 989.1 kg/m3
303.15 K, 31696 kPa | 989.1 kg/m3
303.15 K, 31724 kPa | 989.2 kg/m3
303.15 K, 31759 kPa | 989.2 kg/m3
303.15 K, 31788 kPa | 989.2 kg/m3
303.15 K, 31817 kPa | 989.3 kg/m3
303.15 K, 31846 kPa | 989.3 kg/m3
303.15 K, 31880 kPa | 989.3 kg/m3
303.15 K, 31909 kPa | 989.3 kg/m3
303.15 K, 31938 kPa | 989.3 kg/m3
303.15 K, 31973 kPa | 989.4 kg/m3
303.15 K, 32002 kPa | 989.3 kg/m3
303.15 K, 32036 kPa | 989.4 kg/m3
303.15 K, 32065 kPa | 989.4 kg/m3
303.15 K, 32094 kPa | 989.3 kg/m3
303.15 K, 32128 kPa | 989.5 kg/m3
303.15 K, 32158 kPa | 989.4 kg/m3
303.15 K, 32186 kPa | 989.4 kg/m3
303.15 K, 32221 kPa | 989.4 kg/m3
303.15 K, 32250 kPa | 989.5 kg/m3
303.15 K, 32280 kPa | 989.5 kg/m3
303.15 K, 32316 kPa | 989.5 kg/m3
303.15 K, 32345 kPa | 989.5 kg/m3
303.15 K, 32375 kPa | 989.4 kg/m3
303.15 K, 32405 kPa | 989.5 kg/m3
303.15 K, 32440 kPa | 989.6 kg/m3
303.15 K, 32470 kPa | 989.6 kg/m3
303.15 K, 32500 kPa | 989.5 kg/m3
303.15 K, 32536 kPa | 989.7 kg/m3
303.15 K, 32566 kPa | 989.6 kg/m3
303.15 K, 32602 kPa | 989.7 kg/m3
303.15 K, 32632 kPa | 989.6 kg/m3
303.15 K, 32661 kPa | 989.6 kg/m3
303.15 K, 32691 kPa | 989.7 kg/m3
303.15 K, 32727 kPa | 989.7 kg/m3
303.15 K, 32757 kPa | 989.6 kg/m3
303.15 K, 32787 kPa | 989.8 kg/m3
303.15 K, 32824 kPa | 989.8 kg/m3
303.15 K, 32854 kPa | 989.8 kg/m3
303.15 K, 32890 kPa | 989.8 kg/m3
303.15 K, 32920 kPa | 989.7 kg/m3
303.15 K, 32951 kPa | 989.7 kg/m3
303.15 K, 32984 kPa | 989.9 kg/m3
303.15 K, 33014 kPa | 989.7 kg/m3
303.15 K, 33051 kPa | 989.9 kg/m3
303.15 K, 33082 kPa | 990 kg/m3
303.15 K, 33112 kPa | 989.9 kg/m3
303.15 K, 33149 kPa | 990 kg/m3
303.15 K, 33180 kPa | 990 kg/m3
303.15 K, 33217 kPa | 990 kg/m3
303.15 K, 33248 kPa | 989.9 kg/m3
303.15 K, 33279 kPa | 990.1 kg/m3
303.15 K, 33317 kPa | 990 kg/m3
303.15 K, 33348 kPa | 990 kg/m3
303.15 K, 33381 kPa | 990 kg/m3
303.15 K, 33413 kPa | 990 kg/m3
303.15 K, 33450 kPa | 990.1 kg/m3
303.15 K, 33482 kPa | 990 kg/m3
303.15 K, 33514 kPa | 990.2 kg/m3
303.15 K, 33546 kPa | 990.1 kg/m3
303.15 K, 33584 kPa | 990.1 kg/m3
303.15 K, 33616 kPa | 990.2 kg/m3
303.15 K, 33648 kPa | 990.2 kg/m3
303.15 K, 33686 kPa | 990.2 kg/m3
303.15 K, 33718 kPa | 990.2 kg/m3
303.15 K, 33756 kPa | 990.2 kg/m3
303.15 K, 33788 kPa | 990.2 kg/m3
303.15 K, 33820 kPa | 990.3 kg/m3
303.15 K, 33852 kPa | 990.3 kg/m3
303.15 K, 33890 kPa | 990.4 kg/m3
303.15 K, 33921 kPa | 990.4 kg/m3
303.15 K, 33952 kPa | 990.5 kg/m3
303.15 K, 33993 kPa | 990.4 kg/m3
303.15 K, 34038 kPa | 990.4 kg/m3
303.15 K, 34093 kPa | 990.4 kg/m3
303.15 K, 34123 kPa | 990.4 kg/m3
303.15 K, 34208 kPa | 990.5 kg/m3
303.15 K, 34249 kPa | 990.5 kg/m3
303.15 K, 34280 kPa | 990.6 kg/m3
303.15 K, 34305 kPa | 990.5 kg/m3
303.15 K, 34336 kPa | 990.6 kg/m3
303.15 K, 34363 kPa | 990.5 kg/m3
303.15 K, 34390 kPa | 990.7 kg/m3
303.15 K, 34423 kPa | 990.6 kg/m3
303.15 K, 34452 kPa | 990.7 kg/m3
303.15 K, 34482 kPa | 990.6 kg/m3
303.15 K, 34512 kPa | 990.7 kg/m3
303.15 K, 34545 kPa | 990.6 kg/m3
303.15 K, 34553 kPa | 990.8 kg/m3
303.15 K, 34554 kPa | 990.7 kg/m3
303.15 K, 34556 kPa | 990.7 kg/m3
323.14 K, 99.4 kPa | 955.6 kg/m3 and 955.7 kg/m3
323.14 K, 99.5 kPa | 955.7 kg/m3 and 955.6 kg/m3
323.14 K, 99.7 kPa | 955.7 kg/m3 [middle of 4 runs]
323.14 K, 99.9 kPa | 955.7 kg/m3 [middle of 4 runs]
323.14 K, 100 kPa | 955.7 kg/m3 and 955.8 kg/m3 and 955.6 kg/m3
323.14 K, 100.1 kPa | 955.7 kg/m3
323.14 K, 100.2 kPa | 955.6 kg/m3 and 955.7 kg/m3
323.14 K, 100.4 kPa | 955.7 kg/m3
323.14 K, 101.1 kPa | 955.6 kg/m3
323.14 K, 135.4 kPa | 955.7 kg/m3
323.14 K, 135.5 kPa | 955.7 kg/m3
323.14 K, 137.4 kPa | 955.7 kg/m3
